The record followed here is a melting point compilation (Tetko et al.; mined from patent text by program, amines drawn as free bases though some values may be those of a salt).

As a reminder, the melting point is the temperature, or range, at which the solid turns liquid.

`O=[N+]([O-])c1nccn1C1CCCO1` (configuration not stated) had a melting point of 91 °C. For `O=[N+]([O-])c1ccc(Oc2ccccc2Oc2ccc([N+](=O)[O-])cc2)cc1` the value was 134 to 135 °C; for `CCCNC(=O)c1cc2cc(OCCNC[C@H](O)COc3ccccc3)ccc2o1`, 127 to 128 °C; for `CN(Cc1ccccc1C(F)(F)F)C1CCN(c2ccc(OC[C@@]3(C)Cn4cc([N+](=O)[O-])nc4O3)cc2)CC1`, 190 °C. Take `COC(=O)C1=C(C)Nc2ccnn2C1c1ccccc1C(F)(F)F` (configuration not stated): the melting point lay in the range of 209 to 210 °C. The compound `O=C(CN1CCC(Cc2ccccc2)CC1)Nc1cccc(NCc2ccccc2)c1` showed a melting point of 112 to 114 °C. For `Cc1nc2c(N)nc3ccccc3c2n1CCCNC(=O)OC(C)(C)C` the value was 112 to 115 °C; for `COc1ccnc(CCc2nc3cc(-c4ccc(S(=O)(=O)NCc5ccccc5)cc4)cnc3[nH]2)c1`, 211 to 212 °C; for `CN(C)C(=O)N(C(=O)Nc1ccccc1)c1ccccc1`, 105 to 107 °C. `CCC(C)(C)N=C(NC#N)Nc1cc(Cl)cc(Cl)c1` came in with a melting point of 151 to 153 °C. Take `CS(=O)c1ccc(CI)cc1` (configuration not stated): the melting point was 80 to 81 °C. Regarding `CCCCOC(=O)C(=O)Nc1ccccn1`, the melting point lay within 35 to 37 °C. As to `CCCCCCCCOc1ccc(-c2ccc(OCCCCCCCC)c(F)c2)cc1F`, the melting point stood at 84 °C. In turn, `O=C(CCCc1ccccc1)N[C@H](Cc1ccccc1C(F)(F)F)[C@@H](O)c1ccc(F)cc1` (racemic) yielded a melting point of 161 to 162 °C. The compound `CCOCc1nc2c(N)nc3ccccc3c2n1CCCCS(=O)(=O)N1CCCCC1` came in with a melting point of 185 to 188 °C. `Oc1cc2c(cc1CCCOc1ccccc1)OC(CCc1ccccc1)C2` (configuration not stated) yielded a melting point of 65 to 70 °C. On to `CCC12CCCN3CCC4(C(=C(C(=O)OC)C1)Nc1ccccc14)C32` (configuration not stated), for which the melting point fell in the range of 124 to 125 °C.

Compound `COc1cc(C(=O)O)ccc1Cc1cn(C)c2ccc(NC(=O)OC3CCCC3)cc12` yielded a melting point of 157 to 158 °C. Take `CC(C)Oc1ccc(OCc2ccccc2)cc1-c1nc2cccnc2[nH]1`: the melting point lay in the range of 160 to 162 °C. Next, `CN(C)CC(=O)N(C)c1ccc(OCC(=O)N[C@@H](CC(N)=O)C(=O)N[C@@H](Cc2ccccc2)[C@H](O)C(=O)N2CCC[C@H]2C(=O)NC(C)(C)C)cc1`: 129 to 135 °C; `N#CC1=C2C=CC=c3ccccc3=C2CC=C1`: 109 to 111 °C; `CC(O)(c1nc2ccc(S(=O)(=O)c3ccccc3)cc2[nH]1)C(F)(F)F` (configuration not stated): 115 to 117 °C. For `C=C1C(O)CC(OC(C)=O)C2(C)C1CC1(C(C)(C)O)CC(O)C(C)=C1C(OC(=O)c1ccccc1)C2OC(C)=O` (configuration not stated) the value was 200 to 201 °C; for `COc1ccc(C2CNC(=O)C2)cc1OCC(CN1CCN(c2ccccc2)CC1)OC(C)=O` (configuration not stated), 128 to 133 °C. `CCOC(=O)N1CCN(c2nnc(N)[nH]2)CC1`: the melting point was 196 to 198 °C. For `O=C(C1CCCCC1)C1CCN(C(=O)c2cc(O)c(O)c([N+](=O)[O-])c2)CC1` the value was 155 to 165 °C; for `CCN(C(=O)c1ccc(Cn2cnc3ccccc32)cc1)C1CCCCC1`, 118 to 119 °C; for `COc1c(C)cc2c(c1C)Cc1c-2[nH]c2c(C)cc(C)cc12`, 210 °C.

Take `N#Cc1ccc(N2CCC(=O)CC2)cc1`: the melting point lay within 100 to 101 °C. Take `COC(=O)C1C(c2ccc(I)cc2)CC2CCC1N2C` (configuration not stated): the melting point was in the range of 101 to 102 °C. Next, `CCCCCCCCCCCCCC(=O)OCC1(CO)CCC(=O)O1` (configuration not stated): 65 to 66 °C; `CCn1c(C(C)N(C)S(=O)(=O)c2ccc(Cl)c(Cl)c2)cnc1Oc1ccc(Cl)cc1` (configuration not stated): 142 to 144 °C. For `CS(=O)(=O)NC(=O)CCCC[C@H]1CCSS1`, the melting point was 71 to 73 °C.

For the compound `CC(C)C[C@H](NC(=O)[C@H](Cc1ccccc1)NC(=O)C1CCCC1)C(=O)O`, the melting point is 148 to 151 °C.

Compound `CC(C)(O)C(=O)c1ccc(OCC(N)=O)cc1` had a melting point of 139 °C. On to `Fc1cccc(F)c1-c1ncc(-c2ccc(-c3ccc(OC(F)(F)F)cc3)cc2)nn1`, for which the melting point was 225 to 230 °C. Compound `COc1cc2c(cc1OC)CN(c1nc(N3CCc4cc(OC)c(OC)cc4C3)nc(N3CCc4cc(OC)c(OC)cc4C3)n1)CC2` displayed a melting point of 166 to 169 °C.

In turn, `CC(=O)C(C)(CO)CO` yielded a melting point of 60 °C. For `CSc1ccc(C2=C(c3ccccc3)C(=O)OC23CCCC3)cc1` the value was 147 to 148 °C. `CC(=O)c1ccc(S(=O)(=O)N2CCCC2)cc1` gave a melting point of 138 to 139 °C. In turn, `CCOC(=O)C1C(OC)C(=O)N1c1ccc(OC)cc1` (configuration not stated) displayed a melting point of 116 to 118 °C. For `CCS(=O)(=O)CCC(=O)NNC(=O)N1Cc2ccccc2Oc2ccc([N+](=O)[O-])cc21` the value was 198 to 200 °C; for `COC(=O)COc1cc2c(c3c1c(C(=O)C(N)=O)c(C)n3Cc1ccc(F)cc1)CCC2`, 134 to 136 °C. For `Cc1c(CC(=O)O)c2cc(O)c(F)cc2n1C(=O)c1ccccc1` the value was 159 to 161 °C; for `CC(C)CC1(C)C(=O)NCCN1Cc1ccccc1` (configuration not stated), 158 to 161 °C.

Turning to `O=C(Oc1ccc2c(c1)CCCC2)Oc1ccc2c(c1)CCCC2`, the melting point is 112 °C. For `O=C(OCC1CC1)c1ncn2c1[C@@H]1CCCN1C(=O)c1c-2ccc(Cl)c1Cl` the value was 185 to 186 °C; for `Cc1c2n(c3ccccc13)CC(C)(C)C2O` (configuration not stated), 82 to 85 °C; for `CCN(CCCc1coc2c(OC)cccc12)C1COc2c(F)ccc(C(N)=O)c2C1` (configuration not stated), 125 to 128 °C. `CC(C)c1n[nH]c2c(O)ncnc12` came in with a melting point of 302 to 304 °C.

With `O=C1NCC[C@@H](c2ccc(Oc3ccccc3)cc2)[C@@H]1c1ccccc1` (relative stereo), the melting point is 157 to 159 °C.

For the compound `CC(C)(C)c1cc(C(c2ccc([N+](=O)[O-])cc2)N2CCCCC2)cc(C(C)(C)C)c1O` (configuration not stated), the melting point is 147 to 148 °C. As for `CCOc1csc(NC(C)=O)c1C#N`, the melting point was in the range of 242 to 243 °C.

`COc1ccc(S(=O)(=O)C(CCCCCc2ccc(Cl)cc2)C(=O)O)cc1` (configuration not stated) showed a melting point of 58 to 65 °C. `O=C1C[C@H](NC(=O)C(F)(F)F)C(=O)O1` registered a melting point of 116 to 118 °C. With `CCOC(=O)C(C)(C)Oc1ccc(-c2ccc(CCNC(=O)c3ccc(F)cc3)cc2)cc1`, the melting point is 135 °C. `O=C(OC1CCCCCC1)c1ncn2c1[C@@H]1CCCN1C(=O)c1c(Cl)cccc1-2` gave a melting point of 179 to 180 °C. `CN1CCN(c2ccc(Nc3ncc4c(n3)S/C(=C/c3ccc(O)cc3)C(=O)N4)cc2)CC1` gave a melting point of 312 to 314 °C.

`CC1(CC(=O)N2CCC([C@H]3c4ncc(Br)cc4CCc4cc(Cl)cc(Br)c43)CC2)C=CN(S(C)(=O)=O)C=C1` returned a melting point of 105 to 109 °C.

Take `Cn1cc(C2=C(c3cn(C)c4cc(O)ccc34)C(=O)NC2=O)c2ccccc21`: the melting point is 279 to 282 °C.

Turning to `CSC(=CC(=O)C(F)(F)F)SC`, the melting point turned out to be 97 °C. Compound `CC(C)(C)OC(=O)[C@@H]1CS[C@H](c2ccccc2)N1C(=O)CNC(=O)Nc1cccc(C(=O)O)c1` came in with a melting point of 134 °C.
